Measurements: patent US8343539B2, “Compounds that bind α5β1 integrin and methods of use” (Regents of the University of Minnesota, priority 2006, dated 2013)
Entries after “also recorded” stand apart in the source; their conditions may differ. Where no end group is shown, it is not given here. (C16)2 = not defined here

Experiments:
HUVECs [1] = experiment: HUVEC adhesion timed experiments on LB membranes (Example 2); assay type: cell-based, human
Experimental: Surface preparation: Each peptide-amphiphile was used to form homogenous LB membranes as in previous work (Kokkoli Langmuir 2004; 20:2397-2404), except that both the water and 15 mm mica disks used had been autoclaved for sterility. All depositions were done at a surface pressure between 41 and 47 mN/m, well below the collapse pressure and in the liquid-condensed or solid phase. Approximately 90 minutes before cells were seeded on the LB films to begin cell adhesion experiments, mica surfaces were transferred into 1× phosphate buffered saline (PBS), with particular care taken to ensure films were not exposed to air. After 5-10 minutes of equilibration, surfaces were transferred into 24-well plates containing a supplemented MCDB-131 basal media (Sigma), as described in Example 1. Following surface transfer, 24-well plates were moved to a 37° C., 5% CO2 incubator for 45-60 minutes. As a control, 22 mm diameter human fibronectin-coated coverslips (BD Biosciences), referred to as FN, were put into 12-well plates, covered with 2 ml of the supplemented media, and also incubated for 45-60 minutes.
Cell culture: Human umbilical vein endothelial cells, HUVECs (Cambrex Corporation), were cultured as described previously (see Example 1). Only cells from passage 3 were used in all studies.
Cell adhesion experiments: Flasks of HUVECs with at least 90% confluency were washed with 1×PBS, trypsinized with 0.25% Trypsin-EDTA (Fisher Scientific), and neutralized with 2% fetal bovine serum in MCDB-131 basal media. The suspended cells from all flasks were placed in one 50 ml centrifuge tube and centrifuged at 1000 rpm for 5 minutes. The media was removed and the cell pellet was resuspended in the supplemented media described above. A hemocytometer was used to count the cells and then 497 cells/mm^2 were seeded onto both LB and FN surfaces. Surfaces were incubated with cells at 37° C., 5% CO2 for 1, 4, or 12 hours. Cell adhesion following these times was determined using the CyQuant cell proliferation assay kit (Molecular Probes), which measures the fluorescence of a cellular nucleic acid-binding dye using the SpectraMAX GeminiXS plate reader (Molecular Devices). Standard calibration curves were created within each experiment for both 12- and 24-well plates.

CT26.WT cells = experiment: Blocking of liposome binding with free PR_b peptide-amphiphile (flow cytometry); assay type: cell-based, mouse; conditions: free peptide-amphiphile 200 μg/ml, 1 hr pre-incubation, 4° C.
Experimental: Flow cytometry: CT26.WT confluent cell monolayers were trypsinized (0.25% Trypsin+0.1% EDTA) and resuspended in ice-cold FB (fluorescent buffer: phosphate buffered saline (PBS) supplemented with 0.02% sodium azide and 2.5% fetal bovine serum) containing liposomes at a lipid concentration of 250 μM and a cell concentration of 1 million/ml in 15 ml centrifuge tubes. Tubes were incubated at 4° C. or 37° C. over a rotary shaker for the specified duration of time. Cells were then pelleted and washed twice in FB. Flow cytometric analysis was carried out immediately. For peptide blocking experiments, the protocol specified above was used except cells were incubated with 200 μg/ml of free peptide-amphiphile in FB for one hour prior to incubating the cells with the liposomes. For integrin α5β1 expression studies, CT26.WT confluent cell monolayers were trypsinized (0.25% Trypsin+0.1% EDTA) and resuspended in ice-cold FB at a cell concentration of 1 million/ml in 15 ml centrifuge tubes. Tubes were incubated at 4° C. with primary antibody (anti-integrin α5β1) or goat isotype control (goat IgG) over a rotary shaker for 35 min. Cells were then pelleted and washed twice in FB and then incubated again with the secondary antibody (anti-goat IgG FITC conjugated) for 35 min. Finally, cells were pelleted and washed twice. Flow cytometric analysis was carried out immediately. […]

HUVECs [2] = experiment: Actin cytoskeleton and focal adhesion staining; assay type: cell-based, human; conditions: 1-72 hours
Experimental: Actin cytoskeleton and focal adhesion staining: Surface transferring, cell seeding, incubation, and fixing were done as described above. Staining for the actin cytoskeleton, focal adhesions, and nucleus of attached cells was done using the Actin Cytoskeleton and Focal Adhesion Staining Kit following the manufacturer's protocol (Chemicon Int.) and using 1:350 dilution for anti-vinculin antibody, 1:200 for the secondary antibody, approximately 1:1000 dilution (equivalent to 1 unit/surface) for TRITC-conjugated phalloidin and 1:1000 for DAPI. After washing, surfaces were mounted onto glass slides and stored at 4° C. protected from light. A confocal microscope (BIORAD Multiphoton Confocal 1024) was used for imaging.

HUVECs [3] = experiment: Fibronectin production staining (Example 2); assay type: cell-based, human; conditions: 12 hours
Experimental: Fibronectin production staining: Surface preparation, transfer, and cellular work were all done as described in the previous methods. Only surfaces incubated with cells for 12 hours were stained. The staining protocol, involving a primary antibody for secreted fibronectin (Chemicon), a FITC-conjugated secondary antibody (Chemicon), and the Image-iT LIVE plasma membrane and nuclear labeling kit (Molecular Probes), was done as previously described in Example 1. A single photon confocal microscope (Olympus FluoView FV1000) was used for imaging. Two slides per substrate were prepared each during 2 separate experiments and each slide was imaged 2-4 times. The final images chosen were all taken from one experiment for consistency, but were representative of the images obtained from both experiments.

HUVECs [4] = experiment: Extracellular fibronectin production by HUVECs (Example 1); assay type: cell-based, human
Experimental: (§1) Cell spreading and fibronectin production experiments: Surface transferring, cell seeding, and incubation were done in the same manner as in the adhesion experiment, with a cell density of 497 cells/mm^2, and incubation times of 1, 12, 24, 48, and 72 hour. At the end of each incubation, the surfaces were removed, washed with […] of PBS, and fixed in 1 ml of 4% paraformaldehyde (Sigma) in PBS for 15 minutes at 37° C., 5% CO2. After washing with PBS, surfaces were first labeled for secreted fibronectin: surfaces were subjected to a blocking solution (0.1% BSA in PBS) for 30 minutes, incubated for 1 hour with a primary antibody specific for secreted fibronectin (mouse anti-human fibronectin (P1H11) monoclonal antibody (Chemicon Int.) at a 1:500 dilution in blocking solution, and then for 45 minutes with a secondary antibody (IgG fluorescein (FITC) conjugated antibody; Chemicon Int.) at a 1:200 dilution in PBS. As a final step, cell membranes and nuclei were stained using the Image-iT™ LIVE Plasma Membrane and Nuclear Labeling Kit following the manufacturer's protocol for labeling fixed cells (Molecular Probes). After final washing, surfaces were mounted onto glass slides and stored at 4° C. protected from light. An inverted fluorescent microscope (Nikon Eclipse TE200 with Pixcell II LCM) was used for imaging. Fibronectin production was assessed visually, by comparing 10-20 fluorescence images from two samples for each substrate (two independent experiments performed at different days). Cell spreading was quantified from two samples per substrate (two independent experiments performed at different days) by measuring cell area with the NIH imaging software.

HUVECs [5] = experiment: HUVEC spreading on substrates (cell area); assay type: cell-based, human
Experimental: as §1

Substance: (C16)2-Glu-C2-KSSPHSRNSGSGSGSGSGRGDSP ({(C16)2-Glu-C2}-KSSPHSRNSGSGSGSGSGRGDSP; not fully specified; reading uncertain) [PR_b]
- HUVEC adhesion compared with FN, overall (HUVECs [1]; 1, 4 and 12 hours): outperform the positive control fibronectin at all times; also recorded: better than FN at all times; also recorded: statistically better than both Pr_f and the control FN
- HUVEC adhesion compared with Pr_c (HUVECs [1]; 1, 4 and 12 hours): significantly better than Pr_c at all times except 1 hour
- HUVEC adhesion compared with Pr_d (HUVECs [1]; 1, 4 and 12 hours): better than Pr_d at all times except 4 hours
- HUVEC adhesion compared with Pr_f (HUVECs [1]; 1, 4 and 12 hours): statistically better than both Pr_f and the control FN; also recorded: much better
- HUVEC adhesion level (description) (HUVECs [1]; 1, 4 and 12 hours): excellent adhesion at all times; also recorded: highest level of adhesion
- HUVEC adhesion compared with Pr_e (HUVECs [1]; 1 and 4 hours): no statistical difference
- HUVEC adhesion compared with Pr_e (HUVECs [1]; 12 hours): outperforms Pr_e; also recorded: better than Pr_e
- Maintenance / decay of HUVEC adhesion over time (HUVECs [1]; up to 12 hours): most consistent adhesion over 12 hours; also recorded: smallest amount of decay over 12 hours; also recorded: least drop-off between 4 and 12 hours; also recorded: least amount of decay
- Blocking of binding of PR_b and GRGDSP targeted stealth liposomes (low PEG2000) to CT26.WT cells (CT26.WT cells): completely blocks the binding; also recorded: completely blocked
- Actin stress fibers and focal contacts (HUVECs [2]): displayed actin stress fibers and focal contacts
- Cytoskeletal organization and focal adhesion compared to FN (HUVECs [2]): better-developed cytoskeletal structure compared to FN; also recorded: stronger cytoskeletal organization and focal adhesion formation
- Fibronectin (ECM) production by adhered HUVECs (HUVECs [3]): good fibronectin production
- Fibronectin secretion by adhered HUVECs (HUVECs [4]; after 48 hours): fully covered with secreted fibronectin
- Amount of fibronectin secretion, PR_b versus FN (HUVECs [4]; all times examined): comparable for both substrates
- HUVEC spreading (cell area) (HUVECs [5]; 1-24 hours): mostly spread
- HUVEC spreading, rank among surfaces (HUVECs [5]; all times examined, 1-72 hours): spread the most
